{"source": "paper PMC2722925", "about": "(Biochemistry, 2008)", "key": {"[1]": {"target": "T1, EPPasePGM (EPPase PGM domain, residues 69 to 330) (Bombyx mori, UniProt Q7YTB0)", "T1 sequence (Q7YTB0 69-330 isoform Q7YTB0-1)": "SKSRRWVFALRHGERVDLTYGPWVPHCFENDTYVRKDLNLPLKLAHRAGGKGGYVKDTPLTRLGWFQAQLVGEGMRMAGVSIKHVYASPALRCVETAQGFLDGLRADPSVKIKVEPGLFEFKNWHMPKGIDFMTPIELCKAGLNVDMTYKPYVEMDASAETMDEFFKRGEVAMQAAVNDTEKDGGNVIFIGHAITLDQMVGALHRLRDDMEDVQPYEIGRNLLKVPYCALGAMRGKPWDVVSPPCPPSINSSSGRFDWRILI", "test": "Phosphatase activity", "details": "for Dephosphorylation by EPPasePGM (substrate specificity): 50 nM EPPasePGM, 1 mM compound, pH 7.5, pNPP as positive control, data not shown; for Km: substrate of wild-type EPPasePGM; for Km / kcat: pH 7.5, 37 °C; for kcat: substrate turnover by wild-type EPPasePGM, 50 nM enzyme"}, "[2]": {"tested_on": "EPPase", "test": "Phosphatase activity of native or recombinant full-length EPPase", "assay_type": "biochemical, Bombyx mori", "details": "E22P versus pTyr-peptide"}, "[3]": {"tested_on": "EPPase", "details": "native or recombinant full-length EPPase; ref [9]; cited from earlier work"}, "[4]": {"target": "T2, EPPasePGM (Bombyx mori, UniProt Q7YTB0)", "T2 sequence (Q7YTB0 69-330 isoform Q7YTB0-1)": "T1 sequence (Q7YTB0 69-330 isoform Q7YTB0-1)", "test": "Inhibition of EPPasePGM pNPP hydrolysis", "assay_type": "biochemical"}, "[5]": {"target": "Sts-1PGM (Mus musculus, UniProt Q8BGG7)", "sequence (Q8BGG7 369-638 limits assumed)": "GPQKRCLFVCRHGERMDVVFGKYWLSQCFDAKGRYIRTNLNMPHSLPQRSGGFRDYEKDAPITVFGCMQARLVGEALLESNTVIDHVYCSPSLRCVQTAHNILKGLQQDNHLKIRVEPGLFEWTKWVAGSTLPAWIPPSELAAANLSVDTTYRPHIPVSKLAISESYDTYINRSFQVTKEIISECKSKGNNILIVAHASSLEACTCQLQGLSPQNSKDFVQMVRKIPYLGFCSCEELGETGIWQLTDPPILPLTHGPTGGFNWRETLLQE", "test": "Phosphatase activity", "assay_type": "biochemical", "details": "for Km: substrate of Sts-1PGM; for kcat: substrate turnover by Sts-1PGM"}, "[6]": {"target": "EPPasePGM K196S (Bombyx mori, UniProt Q7YTB0, K526S)", "sequence (Q7YTB0 399-660 K526S)": "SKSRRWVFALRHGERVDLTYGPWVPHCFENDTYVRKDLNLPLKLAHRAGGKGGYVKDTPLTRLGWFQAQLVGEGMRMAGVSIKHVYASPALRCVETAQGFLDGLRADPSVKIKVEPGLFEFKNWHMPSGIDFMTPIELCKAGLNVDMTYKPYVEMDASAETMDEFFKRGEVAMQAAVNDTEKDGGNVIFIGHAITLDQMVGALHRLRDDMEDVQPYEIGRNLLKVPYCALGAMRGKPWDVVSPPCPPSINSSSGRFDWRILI", "assay_type": "biochemical"}, "[7]": {"target": "T3, EPPasePGM K292S (Bombyx mori, UniProt Q7YTB0, K622S)", "T3 sequence (Q7YTB0 399-660 K622S)": "as the sequence (Q7YTB0 399-660 K526S) above, with S128K, K224S counted along it", "assay_type": "biochemical"}, "[8]": {"target": "T3, EPPasePGM K292S", "test": "biochemical"}, "[9]": {"target": "EPPasePGM K196D (Bombyx mori, UniProt Q7YTB0, K526D)", "sequence (Q7YTB0 399-660 K526D)": "as the sequence (Q7YTB0 399-660 K526S) above, with S128D counted along it", "test": "Phosphatase activity of EPPasePGM K196D mutant", "assay_type": "biochemical"}, "[10]": {"details": "IC50, 1 mM pNPP, 50 nM EPPasePGM, 37 °C, pH 7.5"}, "[11]": {"details": "IC50, 1 mM pNPP, 50 nM EPPasePGM, 37 °C, text values in mM"}}, "note": "Where “and” joins values, the source holds several entries; their conditions need not be identical. Equal entries are not always repeated. Where two headings read alike, the source gives them in different places."}
{"molecule": "O=P(O)(O)Oc1cccc2ccccc12", "note": "[1-naphtyl phosphate]", "values": [{"measurement": "Dephosphorylation by EPPasePGM (substrate specificity)", "setting": "[1]", "value": "failed to dephosphorylate"}]}
{"molecule": "C[C@H](C(CCC(C)(C)O)OP(=O)(O)O)[C@H]1CCC2(O)C3=CC(=O)[C@@H]4C[C@@H](O)[C@@H](O)C[C@]4(C)[C@H]3CC[C@]12C", "note": "(stereo partly drawn) [E22P, ecdysone 22-phosphate]", "values": [{"measurement": "kcat for E22P relative to pTyr-peptide (times lower)", "setting": "[2]", "value": 8}, {"measurement": "Km", "setting": "[3]", "value": 5.9, "unit": "µM"}, {"measurement": "kcat", "setting": "[3]", "value": 0.94, "unit": "s⁻¹"}]}
{"molecule": "O=C(O)[C@H](O)[C@@H](O)C(=O)O", "note": "[L-tartrate]", "values": [{"measurement": "Inhibition of pNPP hydrolysis by EPPasePGM", "setting": "[4]; concentrations as high as 100 mM", "value": "did not inhibit"}]}
{"molecule": "O=P(O)(O)O", "note": "[Phosphate]", "values": [{"measurement": "Ki", "setting": "[4]", "value": 25800, "unit": "µM"}, {"measurement": "IC50", "setting": "[4]; [10]", "value": 47.1, "unit": "mM"}, {"measurement": "IC50", "setting": "[4]; [11]", "value": "47 ± 11", "unit": "mM"}]}
{"molecule": "C[C@]12C=CC(=O)C=C1CC[C@@H]1[C@@H]2[C@@H](O)C[C@@]2(C)[C@H]1CC[C@]2(O)C(=O)COP(=O)([O-])[O-].[Na+].[Na+]", "note": "[Prednisolone 21P, prednisolone 21-phosphate disodium salt]", "values": [{"measurement": "Km", "setting": "[5]", "value": "450 ± 90", "unit": "µM"}, {"measurement": "kcat", "setting": "[5]", "value": 0.15, "unit": "s⁻¹"}, {"measurement": "Km", "setting": "[6]", "value": "1060 ± 240", "unit": "µM"}, {"measurement": "kcat", "setting": "[6]", "value": 6.1, "unit": "s⁻¹"}, {"measurement": "Km", "setting": "[7]", "value": "510 ± 230", "unit": "µM"}, {"measurement": "kcat", "setting": "[7]", "value": 4.2, "unit": "s⁻¹"}, {"measurement": "Km", "setting": "[1]", "value": "650 ± 170", "unit": "µM"}, {"measurement": "kcat", "setting": "[1]", "value": 5.9, "unit": "s⁻¹"}]}
{"molecule": "[O]=[W](=[O])([OH])[OH]", "note": "[Tungstate]", "values": [{"measurement": "IC50", "setting": "[4]", "value": 0.052, "unit": "mM"}, {"measurement": "Ki", "setting": "[4]", "value": 34, "unit": "µM"}, {"measurement": "IC50", "setting": "[8]", "value": 70, "unit": "µM"}]}
{"molecule": "[O]=[V]([OH])([OH])[OH]", "note": "[Vanadate]", "values": [{"measurement": "Ki", "setting": "[4]", "value": 1900, "unit": "µM"}, {"measurement": "IC50", "setting": "[4]; [10]", "value": 2.91, "unit": "mM"}, {"measurement": "IC50", "setting": "[4]; [11]", "value": "2.9 ± 0.43", "unit": "mM"}]}
{"molecule": "O=C(CO)[C@@H](O)[C@H](O)[C@H](O)COP(=O)(O)O", "note": "[fructose-6-phosphate]", "values": [{"measurement": "Dephosphorylation by EPPasePGM (substrate specificity)", "setting": "[1]", "value": "failed to dephosphorylate"}]}
{"molecule": "O=[N+]([O-])c1ccc(OP(=O)(O)O)cc1", "note": "[pNPP, para-nitrophenylphosphate]", "values": [{"measurement": "Km", "setting": "[5]", "value": "500 ± 70", "unit": "µM"}, {"measurement": "kcat", "setting": "[5]", "value": 70.1, "unit": "s⁻¹"}, {"measurement": "Km", "setting": "[6]", "value": "2700 ± 160", "unit": "µM"}, {"measurement": "kcat", "setting": "[6]", "value": 5.0, "unit": "s⁻¹"}, {"measurement": "Km", "setting": "[9]", "value": "2500 ± 200", "unit": "µM"}, {"measurement": "kcat", "setting": "[9]", "value": 2.4, "unit": "s⁻¹"}, {"measurement": "Km", "setting": "[7]", "value": "2400 ± 200", "unit": "µM"}, {"measurement": "kcat", "setting": "[7]", "value": 6.3, "unit": "s⁻¹"}, {"measurement": "Km", "setting": "[3]", "value": 13100, "unit": "µM"}, {"measurement": "kcat", "setting": "[3]", "value": 135, "unit": "s⁻¹"}, {"measurement": "kcat of EPPasePGM relative to Sts-1PGM (fold slower)", "setting": "[1]; pNPP hydrolysis", "value": 6}, {"measurement": "kcat/Km of EPPasePGM relative to Sts-1PGM (fold slower)", "setting": "[1]; pNPP hydrolysis", "value": 20}, {"measurement": "Km", "setting": "[1]", "value": "1900 ± 200", "unit": "µM"}, {"measurement": "kcat", "setting": "[1]", "value": "11.7 ± 0.6 s⁻¹ and 11.7 s⁻¹"}]}
{"molecule": "C[C@H]1C[C@H]2[C@@H]3CCC4=CC(=O)C=C[C@]4(C)[C@@]3(F)[C@@H](O)C[C@]2(C)[C@@]1(O)C(=O)COP(=O)([O-])[O-].[Na+].[Na+]", "note": "[β-Methasone 21P, β-methasone 21-phosphate disodium salt]", "values": [{"measurement": "Km", "setting": "[1]", "value": "730 ± 320", "unit": "µM"}, {"measurement": "kcat", "setting": "[1]", "value": 10.2, "unit": "s⁻¹"}]}
{"molecule": "O=P(O)(O)OC[C@H]1O[C@@H](O)[C@H](O)[C@@H](O)[C@@H]1O", "note": "[β-glucose-6-phosphate]", "values": [{"measurement": "Dephosphorylation by EPPasePGM (substrate specificity)", "setting": "[1]", "value": "failed to dephosphorylate"}]}
{"molecule": "O=P(O)(O)OC(CO)CO", "note": "[β-phospho-glycerol]", "values": [{"measurement": "Dephosphorylation by EPPasePGM (substrate specificity)", "setting": "[1]", "value": "failed to dephosphorylate"}]}
{"molecule": "O=P(O)(O)OC[C@H]1O[C@@H](O)[C@H](O)[C@@H]1O", "note": "[β-ribose-5-phosphate]", "values": [{"measurement": "Dephosphorylation by EPPasePGM (substrate specificity)", "setting": "[1]", "value": "failed to dephosphorylate"}]}
